Data reported in patent publication US20060166900A1, “Salt of morphine-6-glucuronide” (CeNeS Limited, priority 2002, published 2006).

Tests used:
Type in all cases: physicochemical
[1] = Stability of M6G salts at room temperature over 6 years, HPLC; conditions: for Assay M6G corr.: content calculated as M6G derivative; for degradation / discolouration: storage at room temperature for six years, hydrobromide
[2] = Visual appearance on storage (Example 3)
Method in brief: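 Aliquots (900 mg) kept at 2-8 °C beforehand were stored in argon-flushed brown opaque HDPE bottles at 25 °C/60% RH, 40 °C/75% RH and 60 °C. Visual appearance was assessed at set time points.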

[3] = Water content by Karl Fisher analysis on storage (Example 3)
Method in brief: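 900 mg aliquots were held in argon-flushed brown opaque HDPE bottles at 25 °C/60% RH, 40 °C/75% RH and 60 °C. At each time point, water content (% w/w) was determined in duplicate on about 100 mg of equilibrated material by Karl Fischer titration.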

[4] = Colour of solution by visible spectrophotometry on storage (Example 3); conditions: 5% w/v solution in water
Method in brief: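 5% w/v aqueous solution, absorbance at 420 nm in a 1 cm silica cell. Samples were stored in argon-flushed brown opaque HDPE bottles at 25° C./60% RH, 40° C./75% RH and 60° C.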

[5] = Stability indicating HPLC assay and related substances on storage (Example 3)
[6] = almost 6 years at room temperature
[7] = listed as hydrobromide salt of M6G

With Br.CN1CC[C@]23c4c5ccc(O)c4O[C@H]2[C@@H](O[C@@H]2O[C@H](C(=O)O)[C@@H](O)[C@H](O)[C@H]2O)C=C[C@H]3[C@H]1C5 [Morphine-6-glucuronide hydrobromide] the HN-33177 ([1]; 0 years) was 0.3%, the HN-75083 ([1]; 0 years) was under 0.1% and the “Unknown related substances (sum area %)” value ([1]; 0 years) was under 0.1 area %. The “Assay M6G corr.” value ([1]; 0 years) was 90.7%, the HN-33177 ([1]; 6 years at ambient temperature) was 0.4% and the HN-67002 ([1]; 6 years at ambient temperature) was 0.5%. For the same molecule, the HN-67003 ([1]; 6 years at ambient temperature) was 0.2%, the “Unknown related substances (sum area %)” value ([1]; 6 years at ambient temperature) was 1.0 area % and the “Assay M6G corr.” value ([1]; 6 years at ambient temperature) was 96.3%. The largest unidentified peak [1, 6] was at most 0.4 area %, the “peaks present in the chromatogram that cannot be identified by retention time” value [1, 6] was 4 and the degradation ([1]; listed as M6G.HBr) was “very limited amount of degradation”. The discolouration ([1]; listed as M6G.HBr) was “no discolouration”, the degradation [1, 7] was “very limited degradation” and the discolouration [1, 7] was “not discoloured”. For the same molecule, the Appearance ([2]; 1 month, 25° C./60% RH) was “White crystalline powder”, the Appearance ([2]; 1 month, 40° C./75% RH) was “White crystalline powder” and the Appearance ([2]; 1 month, 60° C.) was “White crystalline powder”. For the same molecule, the Appearance ([2]; 3 months, 25° C./60% RH, hydrobromide) was “White crystalline powder”, the Appearance ([2]; 3 months, 25° C./60% RH, listed as hydrobromide, hydrobromide) was “white crystalline solids” and the Appearance ([2]; 3 months, 40° C./75% RH) was “White crystalline powder”. For the same molecule, the Appearance ([2]; Initial) was “White crystalline powder”, the Moisture ([3]; 1 month, 25° C./60% RH) was 2.56 % w/w and the Moisture ([3]; 1 month, 40° C./75% RH) was 3.19 % w/w. It also gave a Moisture ([3]; 1 month, 60° C.) of 1.95 % w/w, a Moisture ([3]; 3 months, 25° C./60% RH) of 3.28 % w/w and a Moisture ([3]; 3 months, 40° C./75% RH) of 4.24 % w/w. It also gave a Moisture ([3]; Initial) of 2.38 % w/w, a Colour ([4]; 1 month, 25° C./60% RH) of 0.073 Abs@420 nm and a Colour ([4]; 1 month, 40° C./75% RH) of 0.064 Abs@420 nm. The Colour ([4]; 1 month, 60° C.) was 0.261 Abs@420 nm, the Colour ([4]; 3 months, 25° C./60% RH) was 0.046 Abs@420 nm and the Colour ([4]; 3 months, 40° C./75% RH) was 0.066 Abs@420 nm. The Colour ([4]; Initial) was 0.029 Abs@420 nm, the “Known Related Substances HN33177” value ([5]; 1 month, 25° C./60% RH) was 0.74% and the “Known Related Substances HN75083” value ([5]; 1 month, 25° C./60% RH) was 0.03%. The “M6G Assay, Anhydrous basis” value ([5]; 1 month, 25° C./60% RH) was 85.18 % w/w, the “M6G Assay, As is basis” value ([5]; 1 month, 25° C./60% RH) was 83.02 % w/w and the “M6G Assay, Corrected for the salt form” value ([5]; 1 month, 25° C./60% RH) was 100.11 % w/w. The “Total Known” value ([5]; 1 month, 25° C./60% RH) was 0.77%, the “Total Related Substances” value ([5]; 1 month, 25° C./60% RH) was 0.84% and the “Total Unknown” value ([5]; 1 month, 25° C./60% RH) was 0.07%. The “Known Related Substances HN33177” value ([5]; 1 month, 40° C./75% RH) was 0.74%, the “Known Related Substances HN75076” value ([5]; 1 month, 40° C./75% RH) was 0.01% and the “Known Related Substances HN75083” value ([5]; 1 month, 40° C./75% RH) was 0.05%. The “M6G Assay, Anhydrous basis” value ([5]; 1 month, 40° C./75% RH) was 85.09 % w/w, the “M6G Assay, As is basis” value ([5]; 1 month, 40° C./75% RH) was 82.40 % w/w and the “M6G Assay, Corrected for the salt form” value ([5]; 1 month, 40° C./75% RH) was 100.01 % w/w. The “Total Known” value ([5]; 1 month, 40° C./75% RH) was 0.80%, the “Total Related Substances” value ([5]; 1 month, 40° C./75% RH) was 0.80% and the “Total Unknown” value ([5]; 1 month, 40° C./75% RH) was 0.00%. The “Known Related Substances HN33177” value ([5]; 1 month, 60° C.) was 0.66%, the “Known Related Substances HN67003” value ([5]; 1 month, 60° C.) was 0.10% and the “Known Related Substances HN75076” value ([5]; 1 month, 60° C.) was 0.04%. The “Known Related Substances HN75083” value ([5]; 1 month, 60° C.) was 0.02%, the “M6G Assay, Anhydrous basis” value ([5]; 1 month, 60° C.) was 84.44 % w/w and the “M6G Assay, As is basis” value ([5]; 1 month, 60° C.) was 82.82 % w/w. For the same molecule, the “M6G Assay, Corrected for the salt form” value ([5]; 1 month, 60° C.) was 99.25 % w/w, the “Total Known” value ([5]; 1 month, 60° C.) was 0.82% and the “Total Related Substances” value ([5]; 1 month, 60° C.) was 1.20%. The “Total Unknown” value ([5]; 1 month, 60° C.) was 0.38%, the “stability based on % w/w assay” value ([5]; 3 month assay data) was “most stable” and the “Known Related Substances HN33177” value ([5]; 3 months, 25° C./60% RH) was 0.77%. The “Known Related Substances HN75083” value ([5]; 3 months, 25° C./60% RH) was 0.04%, the “M6G Assay, Anhydrous basis” value ([5]; 3 months, 25° C./60% RH) was 86.19 % w/w and the “M6G Assay, As is basis” value ([5]; 3 months, 25° C./60% RH) was 84.30 % w/w. The “M6G Assay, Corrected for the salt form” value ([5]; 3 months, 25° C./60% RH) was 101.30 % w/w, the “Total Known” value ([5]; 3 months, 25° C./60% RH) was 0.81% and the “Total Related Substances” value ([5]; 3 months, 25° C./60% RH) was 0.93%. For the same molecule, the “Total Unknown” value ([5]; 3 months, 25° C./60% RH) was 0.12%, the “Known Related Substances HN33177” value ([5]; 3 months, 40° C./75% RH) was 0.70% and the “Known Related Substances HN75076” value ([5]; 3 months, 40° C./75% RH) was 0.02%. The “M6G Assay, Anhydrous basis” value ([5]; 3 months, 40° C./75% RH) was 85.85 % w/w, the “M6G Assay, As is basis” value ([5]; 3 months, 40° C./75% RH) was 83.14 % w/w and the “M6G Assay, Corrected for the salt form” value ([5]; 3 months, 40° C./75% RH) was 100.90 % w/w. For the same molecule, the “Total Known” value ([5]; 3 months, 40° C./75% RH) was 0.72%, the “Total Related Substances” value ([5]; 3 months, 40° C./75% RH) was 0.72% and the “Total Unknown” value ([5]; 3 months, 40° C./75% RH) was 0.00%. For the same molecule, the “increase in the amount of degradation products as measured by HPLC” value ([5]; 3 months, 40° C./75% RH) was “basically no increase”, the stability assessment ([5]; 25° C./60% RH and 40° C./75% RH for 3 months and 60° C. for 1 month) was “stable” and the “Known Related Substances HN33177” value ([5]; Initial) was 0.72%. The “Known Related Substances HN67003” value ([5]; Initial) was 0.04%, the “Known Related Substances HN75083” value ([5]; Initial) was 0.10% and the “M6G Assay, Anhydrous basis” value ([5]; Initial) was 83.63 % w/w. For the same molecule, the “M6G Assay, As is basis” value ([5]; Initial) was 82.26 % w/w, the “M6G Assay, Corrected for the salt form” value ([5]; Initial) was 98.29 % w/w and the “Total Known” value ([5]; Initial) was 0.86%. The “Total Related Substances” value ([5]; Initial) was 0.94%, the “Total Unknown” value ([5]; Initial) was 0.08% and the overall stability comparison ([5]; overall review of Example 3 data) was “more stable than all other salts and the base”.
